Here are results for seven compounds from PubChem BioAssay AID1963873 (Molecular Pharmacology Branch, DTP, NCI, 2024).

Molecules are shown by their SMILES.

The subject of the assay is 276233-004-R-J1-PDC KRAS spheroids with HUVEC/MSC, viability. The experiment in a line: Anticancer human tumor 276233-004-R-J1-PDC patient-derived colon adenocarcinoma cell line growth inhibition [KRAS2]. Particulars: for viability, T/C: stronger effect = lower value. An outline of the steps:
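KRAS-mutant tumor cells were grown as spheroids with HUVEC endothelial cells and human MSCs as stroma. Targeted agents were tested alone and with KRAS pathway inhibitors. Doses started at or near clinical Cmax, or 10 microM, descending half-log.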

The mark [1] stands for this setting: curve of first compound, second compound 0.1 µM.
Where [2] appears, read: curve of first compound, second compound 0.316 µM.
Setting [3] is: curve of first compound, second compound 1 µM.
Where [4] appears, read: curve of first compound, second compound 3.16 µM.
Setting [5] is: curve of first compound, second compound 10 µM.
[6] abbreviates: second compound 0.1 µM, first compound 0.0316 µM.
The mark [7] stands for this setting: second compound 0.1 µM, first compound 0.1 µM.
Where [8] appears, read: second compound 0.1 µM, first compound 0.316 µM.
[9] abbreviates: second compound 0.1 µM, first compound 1 µM.
The mark [10] stands for this setting: second compound 0.1 µM, first compound 3.16 µM.
Where [11] appears, read: second compound 0.1 µM, first compound 10 µM.
The mark [12] stands for this setting: second compound 0.316 µM, first compound 0.0316 µM.
Where [13] appears, read: second compound 0.316 µM, first compound 0.1 µM.
The mark [14] stands for this setting: second compound 0.316 µM, first compound 0.316 µM.
Setting [15] is: second compound 0.316 µM, first compound 1 µM.
The mark [16] stands for this setting: second compound 0.316 µM, first compound 3.16 µM.
[17] abbreviates: second compound 0.316 µM, first compound 10 µM.
Where [18] appears, read: second compound 1 µM, first compound 0.0316 µM.
Setting [19] is: second compound 1 µM, first compound 0.1 µM.
[20] abbreviates: second compound 1 µM, first compound 0.316 µM.
The mark [21] stands for this setting: second compound 1 µM, first compound 1 µM.
The mark [22] stands for this setting: second compound 1 µM, first compound 3.16 µM.
The mark [23] stands for this setting: second compound 1 µM, first compound 10 µM.
The mark [24] stands for this setting: second compound 3.16 µM, first compound 0.0316 µM.
Where [25] appears, read: second compound 3.16 µM, first compound 0.1 µM.
The mark [26] stands for this setting: second compound 3.16 µM, first compound 0.316 µM.
Setting [27] is: second compound 3.16 µM, first compound 1 µM.
[28] abbreviates: second compound 3.16 µM, first compound 3.16 µM.
Setting [29] is: second compound 3.16 µM, first compound 10 µM.
The mark [30] stands for this setting: second compound 10 µM, first compound 0.0316 µM.
[31] abbreviates: second compound 10 µM, first compound 0.1 µM.
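Also: cells exposed to agents for seven days before viability read.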
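For viability, T/C in this document: 100% = DMSO vehicle control wells and lower values mean fewer viable cells.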

With `COc1cc2nc(C)nc(NC(C)c3cc(N)cc(C(F)(F)F)c3)c2cc1OC1CCOC1` (stereo unspecified), the IC50 (as a rule, the concentration needed to halve the response being measured) (compound alone, run of 07/26/2021) is 8.44 µM [middle of 6 runs].

Consider `COc1cc2nccc(Oc3ccc(NC(=O)C4(C(=O)Nc5ccc(F)cc5)CC4)cc3)c2cc1OC`, for which the viability, T/C (as a rule, the ratio of treated to control) is 93.2% [middle of 5 runs] (compound 0.0316 µM), 89.3% [middle of 5 runs] (compound 0.1 µM) and 93.1% [middle of 5 runs] (compound 3.16 µM). Also, the IC50 (curve of compound) was more than 10000 nM.

As to `COc1cc(Nc2ncc3c(n2)-c2ccc(Cl)cc2C(c2c(F)cccc2OC)=NC3)ccc1C(=O)O` + CC1OCC2(CCN(c3cnc(Sc4ccnc(N)c4Cl)c(N)n3)CC2)C1N, the IC50 under setting [1] is more than 10000 nM; the IC50 under setting [2] was more than 10000 nM; the half-inhibitory concentration (IC50) under setting [3] is more than 10000 nM; the IC50 under setting [4] was 865 nM; the IC50 under setting [5] is less than 31.6 nM. Moreover, the viability, T/C was 107% under setting [6]; 85.6% under setting [7]; 86% under setting [8]; 75.6% under setting [9]; 99% under setting [10]; 68.5% under setting [11]. For the same compound, the viability, T/C is, setting by setting: under setting [12], 83.9%; under setting [13], 82.5%; under setting [14], 84.7%; under setting [15], 82.4%; under setting [16], 67.1%; under setting [17], 64%. Also, the viability, T/C was 75% under setting [18]; 73.8% under setting [19]; 75.2% under setting [20]; 74.9% under setting [21]; 65% under setting [22]; 52.2% under setting [23]. For the same compound, the viability, T/C reads like this: under setting [24], 61%; under setting [25], 51.1%; under setting [26], 51.3%; under setting [27], 55.2%; under setting [28], 44.4%; under setting [29], 45.2%. For the same compound, the viability, T/C was 46.5% under setting [30]; 49.2% under setting [31]; 41.9% (second compound 10 µM, first compound 0.316 µM); 42% (second compound 10 µM, first compound 1 µM); 54% (second compound 10 µM, first compound 3.16 µM); 48% (second compound 10 µM, first compound 10 µM).

Turning to `COc1cc2nccc(Oc3ccc(NC(=O)C4(C(=O)Nc5ccc(F)cc5)CC4)cc3)c2cc1OC` + C=CC(=O)N1CCN(c2nc(OCC3CCCN3C)nc3c2CCN(c2cccc4cccc(C)c24)C3)CC1CC#N, the IC50 reads like this: (curve of first compound, second compound 0.0316 µM) more than 10000 nM; under setting [1], more than 10000 nM; under setting [2], more than 10000 nM; under setting [3], more than 10000 nM; under setting [4], 1680 nM. The viability, T/C was 80% (second compound 0.0316 µM, first compound 0.0316 µM); 89.7% (second compound 0.0316 µM, first compound 0.1 µM); 91% (second compound 0.0316 µM, first compound 0.316 µM); 78.9% (second compound 0.0316 µM, first compound 1 µM); 87.6% (second compound 0.0316 µM, first compound 3.16 µM); 90.6% (second compound 0.0316 µM, first compound 10 µM). Further, the viability, T/C runs as follows: under setting [6], 93.5%; under setting [7], 116%; under setting [8], 82.5%; under setting [9], 94.2%; under setting [10], 74.8%; under setting [11], 70.6%. In addition, the viability, T/C was 76.2% under setting [12]; 79.5% under setting [13]; 86% under setting [14]; 84.6% under setting [15]; 84.7% under setting [16]; 91.2% under setting [17]. Besides, the viability, T/C is 71.5% under setting [18]; 74.5% under setting [19]; 67.1% under setting [20]; 72% under setting [21]; 80.1% under setting [22]; 75.7% under setting [23]. Also, the viability, T/C reads like this: under setting [24], 52.1%; under setting [25], 63.4%; under setting [26], 65%; under setting [27], 76.7%; under setting [28], 32.6%; under setting [29], 3.91%.

As to `CC(=O)Nc1cccc(-n2c(=O)n(C3CC3)c(=O)c3c(Nc4ccc(I)cc4F)n(C)c(=O)c(C)c32)c1`, the viability, T/C is, setting by setting: (compound 0.0001 µM) 95.5% [middle of 5 runs]; (compound 0.000316 µM) 85.5% [middle of 5 runs]; (compound 0.00316 µM) 68.5% [middle of 5 runs]; (compound 0.01 µM) 54.7% [middle of 5 runs]; (compound 0.0316 µM) 21.5% [middle of 5 runs]. Further, the IC50 (curve of compound) was 9.31 nM [middle of 5 runs].

With `CCN1CCN(Cc2ccc(Nc3ncc(F)c(-c4cc(F)c5nc(C)n(C(C)C)c5c4)n3)nc2)CC1`, the viability, T/C reads like this: (compound 0.01 µM) 92.1% [middle of 5 runs]; (compound 0.1 µM) 82.8% [middle of 5 runs]; (compound 0.316 µM) 95.5% [middle of 5 runs]; (compound 1 µM) 106% [middle of 5 runs]. For the same compound, under “curve of compound”, the IC50 was more than 1000 nM.

With `Cn1ncnc1[C@H]1c2n[nH]c(=O)c3cc(F)cc(c23)N[C@@H]1c1ccc(F)cc1` + COc1cc2nc(C)nc(NC(C)c3cc(N)cc(C(F)(F)F)c3)c2cc1OC1CCOC1, the half-inhibitory concentration (IC50) runs as follows: under setting [1], more than 100 nM; under setting [2], more than 100 nM; under setting [3], more than 100 nM; under setting [4], more than 100 nM; under setting [5], less than 0.316 nM. Also, the viability, T/C was 90% (second compound 0.1 µM, first compound 0.000316 µM); 81% (second compound 0.1 µM, first compound 0.001 µM); 76.2% (second compound 0.1 µM, first compound 0.00316 µM); 87.1% (second compound 0.1 µM, first compound 0.01 µM); 89.7% under setting [6]; 76% under setting [7]. Further, the viability, T/C is, setting by setting: (second compound 0.316 µM, first compound 0.000316 µM) 89.1%; (second compound 0.316 µM, first compound 0.001 µM) 96.7%; (second compound 0.316 µM, first compound 0.00316 µM) 84.7%; (second compound 0.316 µM, first compound 0.01 µM) 83.6%; under setting [12], 87.9%; under setting [13], 83.2%. The viability, T/C (second compound 1 µM, first compound 0.000316 µM) was 83.3%; the viability, T/C (second compound 1 µM, first compound 0.001 µM) is 91%; the viability, T/C (second compound 1 µM, first compound 0.00316 µM) was 82.6%; the viability, T/C (second compound 1 µM, first compound 0.01 µM) was 85%; the viability, T/C under setting [18] is 87.6%; the viability, T/C under setting [19] was 79.5%. The viability, T/C (second compound 3.16 µM, first compound 0.000316 µM) is 85.3%; the viability, T/C (second compound 3.16 µM, first compound 0.001 µM) is 90.9%; the viability, T/C (second compound 3.16 µM, first compound 0.00316 µM) was 85.2%; the viability, T/C (second compound 3.16 µM, first compound 0.01 µM) is 99.5%; the viability, T/C under setting [24] was 68.1%; the viability, T/C under setting [25] was 86.1%. The viability, T/C was 33.7% (second compound 10 µM, first compound 0.000316 µM); 40.1% (second compound 10 µM, first compound 0.001 µM); 29.1% (second compound 10 µM, first compound 0.00316 µM); 34.8% (second compound 10 µM, first compound 0.01 µM); 29.4% under setting [30]; 27.2% under setting [31].
